Patent US20120208853A1, “PEST CONTROL COMPOSITION” (priority 2009, published 2012)

Legend:
Plutella xylostella = assay: Pesticidal effect on Plutella xylostella by bait crop immersion treatment; type: in vivo; settings: 48 h, 0.8 ppm alone (Comparative Example 4-2), third-instar larvae, 2 days after, 25° C.
Method: Test Example 1: Pesticidal Effect on Plutella xylostella by Bait Crop Immersion Treatment
To 10 mg of the compound (1) was added 0.2 ml of acetone containing 5% of Tween 20 (product name: SOLGEN (registered trademark) TW-20, manufactured by Dai-ichi Kogyo Seiyaku Co., Ltd.) to cause dissolution, and the solution was diluted with a 5,000-fold diluted solution of a spreading agent (product name: Dine (registered trademark), manufactured by Sumitomo Chemical Garden Products Inc.) to prepare a diluted liquid of the compound (1). […] The cup was stored in a constant temperature breeding room (25° C.), and the number of dead larvae was counted 2 days after, and the mortality was determined by the following equation [1]. […]
(§1) To 10 mg of the compound (13) was added 0.2 ml of acetone containing 5% of Tween 20 (product name: SOLGEN (registered trademark) TW-20, manufactured by Dai-ichi Kogyo Seiyaku Co., Ltd.) to cause dissolution, and the solution was diluted with a 5,000-fold diluted solution of a spreading agent (product name: Dine (registered trademark), manufactured by Sumitomo Chemical Garden Products Inc.) to prepare a diluted liquid of the compound (13). […] The cup was stored in a constant temperature breeding room (25° C.), and the number of dead larvae was counted 2 days after, and the mortality was determined by the above equation [1].

Spodoptera litura = assay: Pesticidal effect on Spodoptera litura by bait crop immersion treatment; type: in vivo; settings: 48 h, fourth-instar larvae, 2 days after, 25° C.
Method: Mortality (%)=(dead larvae number/tested larvae number)×100 Equation [1]
Test Example 3: Pesticidal Effect on Spodoptera litura by Bait Crop Immersion Treatment
as §1, with “(13) or (15)” for “(13)”, “compound. A commercially available pyriproxyfen emulsifiable concentrate manufactured by Sumitomo Chemical Co., Ltd. under the product name of Lano (registered trademark) emulsifiable concentrate was diluted with a 5,000-fold diluted solution of a spreading agent (product name: Dine (registered trademark), manufactured by Sumitomo Chemical Garden Products Inc.) to prepare a diluted liquid of pyriproxyfen. These diluted liquids were mixed to prepare a test solution of prescribed concentration.” for “compound (13).”

CC(COc1ccc(Oc2ccccc2)cc1)Oc1ccccn1 (racemic) [pyriproxyfen, 4-phenoxyphenyl (RS)-2-(2-pyridyloxy)propyl ether]
mortality at 0.8 ppm (Plutella xylostella): 40%
mortality at 0.2 ppm (Spodoptera litura; 0.2 ppm alone (Comparative Examples 5-2, 7-2)): 30%
mortality at 3.13 ppm (Spodoptera litura; 3.13 ppm alone (Comparative Example 6-2)): 50%
